Legend:
[1] = target: T1, Dihydrofolate reductase (Bacillus anthracis, UniProt Q81R22); experiment: Inhibition of Bacillus anthracis DHFR
T1 sequence (Q81R22 whole entry): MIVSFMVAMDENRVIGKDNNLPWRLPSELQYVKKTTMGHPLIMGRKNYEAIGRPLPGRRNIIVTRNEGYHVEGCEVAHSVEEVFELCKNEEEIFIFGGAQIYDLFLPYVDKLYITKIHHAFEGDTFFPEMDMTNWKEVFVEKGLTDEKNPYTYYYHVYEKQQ

[2] = test system: Bacillus anthracis; experiment: Antibacterial activity against Bacillus anthracis; format: functional
[3] = target: T2, Dihydrofolate reductase (Homo sapiens, UniProt P00374); experiment: Inhibition of human DHFR
T2 sequence (P00374 whole entry): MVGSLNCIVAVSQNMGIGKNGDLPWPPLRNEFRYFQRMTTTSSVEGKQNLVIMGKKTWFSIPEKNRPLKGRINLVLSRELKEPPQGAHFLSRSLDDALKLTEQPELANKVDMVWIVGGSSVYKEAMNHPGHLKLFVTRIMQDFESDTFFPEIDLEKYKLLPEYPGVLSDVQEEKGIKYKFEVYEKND

Row | SMILES | IC50 [1] | MIC [2] | IC50 [3]
1 | CCC[C@H]1c2ccccc2C=NN1C(=O)/C=C/c1cc(Cc2cnc(N)nc2N)cc(OC)c1OC | 54 nM | ≤ 12.8 µg/mL | 110000 nM
2 | CC[C@H]1c2ccccc2C=NN1C(=O)/C=C/c1cc(Cc2cnc(N)nc2N)cc(OC)c1OC | 96 nM | – | –
3 | CCCC[C@H]1c2ccccc2C=NN1C(=O)/C=C/c1cc(Cc2cnc(N)nc2N)cc(OC)c1OC | 170 nM | – | –
4 | C=CC(=O)N1N=Cc2ccccc2C1CCC (stereo unspecified) | 46 nM | – | –
